Measurements: PMC9097471, “Development of Selective Phosphatidylinositol 5-Phosphate 4-Kinase γ Inhibitors with a Non-ATP-competitive, Allosteric Binding Mode” (Journal of Medicinal Chemistry, 2022)
Converted amounts (≈) assume the structure as drawn. Read-outs that look alike come from different tables or passages of the source.

Legend:
PI5P4Kβ = biological target: T1, PI5P4Kβ (Homo sapiens, UniProt P78356); assay: KINOMEscan KD (Eurofins Discovery, DiscoverX); type: binding
T1 sequence (P78356 1-416): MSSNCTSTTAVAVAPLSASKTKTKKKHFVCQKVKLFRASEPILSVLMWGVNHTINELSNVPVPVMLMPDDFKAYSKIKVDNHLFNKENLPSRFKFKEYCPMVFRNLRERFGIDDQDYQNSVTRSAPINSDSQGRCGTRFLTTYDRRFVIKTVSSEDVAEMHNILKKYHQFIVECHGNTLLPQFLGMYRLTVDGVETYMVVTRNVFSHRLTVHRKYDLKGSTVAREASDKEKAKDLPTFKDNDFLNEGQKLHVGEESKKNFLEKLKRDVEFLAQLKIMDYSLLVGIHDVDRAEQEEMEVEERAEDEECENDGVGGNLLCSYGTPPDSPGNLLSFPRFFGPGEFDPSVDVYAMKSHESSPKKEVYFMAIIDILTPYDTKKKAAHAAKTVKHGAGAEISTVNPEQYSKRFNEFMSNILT
Method: (§1) a Data were generated at Eurofins Discovery using DiscoverX KINOMEscanTM technology. Streptavidin-coated magnetic beads were treated with biotinylated small molecule ligands for 30 minutes at room temperature to generate affinity resins for kinase assays. The liganded beads were blocked with excess biotin and washed with blocking buffer (SeaBlock (Pierce), 1% BSA, 0.05% Tween 20, 1 mM DTT) to remove unbound ligand and to reduce non-specific binding. Binding reactions were assembled by combining kinases, liganded affinity beads, and test compounds in 1x binding buffer (20% SeaBlock, 0.17x PBS, 0.05% Tween 20, 6 mM DTT). Test compounds were prepared as 111X stocks in 100% DMSO. Kds were determined using an 11-point 3-fold compound dilution series with three DMSO control points. All compounds for Kd measurements are distributed by acoustic transfer (non-contact dispensing) in 100% DMSO. The compounds were then diluted directly into the assays such that the final concentration of DMSO was 0.9%. All reactions performed in polypropylene 384-well plate. Each was a final volume of 0.02 ml. The assay plates were incubated at room temperature with shaking for […]
(§2) room temperature with shaking for 30 minutes. The kinase concentration in the eluates was measured by qPCR. […]

PI5P4Kγ-WT = biological target: T2, PI5P4Kγ-WT (Homo sapiens, UniProt Q8TBX8); assay: KINOMEscan KD (Eurofins Discovery, DiscoverX); type: binding
T2 sequence (Q8TBX8 1-421): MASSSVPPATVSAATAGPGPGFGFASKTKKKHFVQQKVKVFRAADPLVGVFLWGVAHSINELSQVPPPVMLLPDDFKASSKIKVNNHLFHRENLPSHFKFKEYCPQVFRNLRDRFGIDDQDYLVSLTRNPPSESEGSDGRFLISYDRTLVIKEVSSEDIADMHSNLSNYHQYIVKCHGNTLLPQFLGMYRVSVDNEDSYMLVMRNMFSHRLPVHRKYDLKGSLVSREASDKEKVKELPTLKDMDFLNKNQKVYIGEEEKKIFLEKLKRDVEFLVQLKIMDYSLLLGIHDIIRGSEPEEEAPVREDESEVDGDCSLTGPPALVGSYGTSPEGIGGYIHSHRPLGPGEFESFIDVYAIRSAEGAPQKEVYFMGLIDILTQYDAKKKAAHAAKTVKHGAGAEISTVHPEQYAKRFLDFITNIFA
Method: as §1, §2

PI5P4Kγ+ = biological target: T3, PI5P4Kγ+ (Homo sapiens, UniProt Q8TBX8, D138G/D197E/E133P/E135D/E153T/E196G/G136S/G139A/N195G/S132L/S134N); assay: ADP-Glo inhibition assay; type: biochemical; details: for IC50: ADP-Glo; for PI5P4Kγ+ LE: ligand efficiency from PI5P4Kγ+ pIC50
T3 construct: GST (N, cleaved yes); made in house; host or cells: E. coli BL21(DE3), pGEX6P
T3 sequence (Q8TBX8 with tags, fused parts or gaps INS131LPN/S132D/E133S/S134Q/E135A/G136R/D138G/G139A/E153T/N195G/E196G/D197E): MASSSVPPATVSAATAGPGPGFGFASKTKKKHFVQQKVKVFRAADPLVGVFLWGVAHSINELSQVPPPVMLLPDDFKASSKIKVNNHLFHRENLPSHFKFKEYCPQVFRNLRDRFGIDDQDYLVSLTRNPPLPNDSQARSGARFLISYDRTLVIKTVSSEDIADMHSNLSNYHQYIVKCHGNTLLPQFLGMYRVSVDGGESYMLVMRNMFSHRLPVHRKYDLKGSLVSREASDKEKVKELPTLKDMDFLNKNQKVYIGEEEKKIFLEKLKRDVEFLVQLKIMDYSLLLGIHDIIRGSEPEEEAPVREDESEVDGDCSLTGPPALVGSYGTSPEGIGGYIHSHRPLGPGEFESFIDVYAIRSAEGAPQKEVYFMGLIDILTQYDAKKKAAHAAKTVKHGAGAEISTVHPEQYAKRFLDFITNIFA
Method: Recombinant mutant PI5P4Kγ+ was prepared essentially as described previously.[25] […] Cultures were induced with 0.4 mM IPTG and probe sonicated in the presence of protease inhibitors. The GST fusion protein of PI5P4Kγ+ was harvested by binding to glutathione sepharose beads (Cytiva) and cleaved in situ with 50U of PreScission protease (Cytiva) for 4 h at 4 °C. The cleaved protein was further purified by size-exclusion chromatography (AKTA Pure, Cytiva). The protein purity was confirmed by sodium dodecyl sulphate–polyacrylamide gel electrophoresis, and the concentration was determined by colorimetric assay (Bio-Rad).
Statistical analysis was performed using nonparametric testing in Prism 8 (GraphPad). Activity pIC50 values and in vivo binding pEC50 values were estimated using a 4-parameter fit (Dotmatics).

Kinetic solubility = type: physicochemical; details: PBS buffer, PBS pH 7.4
Method: Kinetic solubility analysis was performed by Charles River Laboratories Inc. (ADME-SOP-01). Compound in
DMSO at 10 mM was diluted to 200 µM in both DMSO and buffer (0.1 M PBS, pH 7.4, 2% DMSO final), and
an aliquot of the 200 µM DMSO solution was diluted to 10 µM, and all dilutions were equilibrated for 2 hours. […]
Compound 9 was purchased from Am binter (Amb16536894) and was determined by UPLC to have purity >95%.
All other compounds were synthesised as described below , and all tested compounds have purity >95% by UPLC

IKKe = IKKe (Homo sapiens, UniProt Q14164); assay: Kinase panel, radiometric 33P filter binding; details: read-out: % activity remaining
IKKe, sequence (Q14164 whole entry): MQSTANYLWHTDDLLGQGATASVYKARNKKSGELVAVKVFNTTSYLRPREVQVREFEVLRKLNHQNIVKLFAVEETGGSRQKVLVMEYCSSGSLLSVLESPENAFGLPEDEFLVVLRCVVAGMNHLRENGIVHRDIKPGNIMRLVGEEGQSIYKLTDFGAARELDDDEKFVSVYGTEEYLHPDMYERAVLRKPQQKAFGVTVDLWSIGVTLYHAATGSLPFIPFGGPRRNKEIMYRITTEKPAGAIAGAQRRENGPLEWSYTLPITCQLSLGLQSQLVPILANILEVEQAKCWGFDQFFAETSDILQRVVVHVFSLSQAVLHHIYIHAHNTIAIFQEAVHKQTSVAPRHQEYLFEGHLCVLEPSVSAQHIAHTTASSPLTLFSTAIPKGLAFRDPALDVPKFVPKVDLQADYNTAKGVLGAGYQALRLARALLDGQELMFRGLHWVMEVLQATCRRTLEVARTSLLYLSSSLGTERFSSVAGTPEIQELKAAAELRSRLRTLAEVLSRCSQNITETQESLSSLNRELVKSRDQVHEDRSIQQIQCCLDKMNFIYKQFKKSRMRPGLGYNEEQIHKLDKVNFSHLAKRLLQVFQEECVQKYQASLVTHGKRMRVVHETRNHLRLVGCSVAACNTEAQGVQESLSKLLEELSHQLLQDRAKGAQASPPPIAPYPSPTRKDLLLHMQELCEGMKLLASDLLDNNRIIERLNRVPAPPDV
From the text: (§3) filter binding assay using 33P-g-ATPat the MRC PPU International Centre for Kinase Profiling, University of
Kinase % activity remaining s.d.

SYK = SYK (Homo sapiens, UniProt P43405); assay: Kinase panel, radiometric 33P filter binding; details: read-out: % activity remaining
OSR1 = OSR1 (Homo sapiens, UniProt O95747); assay: Kinase panel, radiometric 33P filter binding; details: read-out: % activity remaining
OSR1, sequence (O95747 whole entry): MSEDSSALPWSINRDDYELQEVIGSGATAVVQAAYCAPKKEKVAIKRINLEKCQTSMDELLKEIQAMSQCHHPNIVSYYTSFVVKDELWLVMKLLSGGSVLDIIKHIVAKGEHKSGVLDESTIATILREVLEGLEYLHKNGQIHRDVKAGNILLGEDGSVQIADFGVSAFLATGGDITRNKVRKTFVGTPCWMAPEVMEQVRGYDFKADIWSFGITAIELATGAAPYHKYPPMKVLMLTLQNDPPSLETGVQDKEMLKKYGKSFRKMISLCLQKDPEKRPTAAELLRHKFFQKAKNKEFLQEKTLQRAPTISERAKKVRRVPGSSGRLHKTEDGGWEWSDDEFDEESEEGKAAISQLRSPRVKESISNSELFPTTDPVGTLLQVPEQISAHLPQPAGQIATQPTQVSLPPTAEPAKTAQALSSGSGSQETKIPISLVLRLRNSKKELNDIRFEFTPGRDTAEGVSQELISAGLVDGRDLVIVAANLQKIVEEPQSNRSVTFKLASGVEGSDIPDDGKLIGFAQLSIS

CK2 = CK2 (Homo sapiens, UniProt P68400); assay: Kinase panel, radiometric 33P filter binding; details: read-out: % activity remaining
CK2, sequence (P68400 whole entry): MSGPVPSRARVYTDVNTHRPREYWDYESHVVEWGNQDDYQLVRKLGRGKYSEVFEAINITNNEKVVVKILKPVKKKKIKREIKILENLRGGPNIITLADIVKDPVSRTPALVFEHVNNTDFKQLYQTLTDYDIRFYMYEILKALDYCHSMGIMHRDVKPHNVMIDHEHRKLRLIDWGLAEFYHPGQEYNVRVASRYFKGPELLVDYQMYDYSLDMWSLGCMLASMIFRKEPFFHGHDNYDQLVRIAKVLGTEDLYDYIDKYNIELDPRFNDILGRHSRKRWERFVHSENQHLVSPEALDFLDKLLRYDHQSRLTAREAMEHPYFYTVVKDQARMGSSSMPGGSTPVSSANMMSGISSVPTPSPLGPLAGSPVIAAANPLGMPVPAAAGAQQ
From the text: as §3

MLK3 = MLK3 (Homo sapiens, UniProt Q16584); assay: Kinase panel, radiometric 33P filter binding; details: read-out: % activity remaining
MLK3, sequence (Q16584 whole entry): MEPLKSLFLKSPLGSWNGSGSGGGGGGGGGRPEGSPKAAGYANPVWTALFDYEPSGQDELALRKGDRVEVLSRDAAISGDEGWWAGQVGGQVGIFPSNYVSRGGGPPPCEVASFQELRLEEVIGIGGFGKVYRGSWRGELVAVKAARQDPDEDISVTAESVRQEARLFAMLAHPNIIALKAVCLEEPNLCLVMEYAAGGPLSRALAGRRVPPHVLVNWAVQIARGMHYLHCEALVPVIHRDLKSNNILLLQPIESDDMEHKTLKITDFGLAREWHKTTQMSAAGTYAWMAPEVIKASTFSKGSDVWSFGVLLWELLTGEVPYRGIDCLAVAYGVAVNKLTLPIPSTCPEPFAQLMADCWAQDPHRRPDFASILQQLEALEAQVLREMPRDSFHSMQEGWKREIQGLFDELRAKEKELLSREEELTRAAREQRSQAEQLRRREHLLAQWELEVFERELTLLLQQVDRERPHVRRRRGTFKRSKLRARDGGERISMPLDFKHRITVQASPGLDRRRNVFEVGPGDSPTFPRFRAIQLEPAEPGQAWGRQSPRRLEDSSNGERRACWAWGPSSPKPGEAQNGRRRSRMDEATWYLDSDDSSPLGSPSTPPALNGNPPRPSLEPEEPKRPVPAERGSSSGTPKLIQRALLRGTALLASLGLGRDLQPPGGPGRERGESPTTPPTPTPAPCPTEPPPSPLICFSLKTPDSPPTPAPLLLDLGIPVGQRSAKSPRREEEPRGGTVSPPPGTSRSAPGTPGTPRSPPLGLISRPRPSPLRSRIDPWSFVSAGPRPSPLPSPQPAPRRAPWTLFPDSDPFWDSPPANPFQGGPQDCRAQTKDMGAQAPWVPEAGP
From the text: as §3

IC50 (PI5P4Kγ+; new data, read-out: PI5P4Kγ+ IC50) | SMILES | Kd (PI5P4Kβ) | Kd (PI5P4Kγ-WT) | PI5P4Kγ+ LE (PI5P4Kγ+) | solubility at 2 h (Kinetic solubility) | remaining activity at 10 µM (IKKe) | remaining activity at 10 µM (SYK) | remaining activity at 10 µM (OSR1) | remaining activity at 10 µM (CK2) | IC50 (PI5P4Kγ+; mutant PI5P4Kγ+ construct, read-out: PI5P4Kγ+ pIC50 (converted)) | remaining activity at 10 µM (MLK3)
790 nM | FC(F)(F)c1ccccc1-c1nc(NCc2cccs2)c2ccccc2n1 [Compound 1, NIH-12848, reference compound] | > 30000 nM | 4000 nM | 0.32 | < 5 µM | – | – | – | – | – | –
– | CC(C)c1ccccc1-c1nc(NCc2ccccn2)c2c(ccn2C)n1 [Compound 40] | > 30000 nM | 68 nM | 0.32 | 7 µM (≈ 2.5 µg/mL) | 98% | 91% | 120% | 90% | 631 nM | 90%
